# Target: DDR1 (Homo sapiens (Human), UniProt Q08345)
# Assay: Measurement of DDR1 enzyme inhibitory activity (phosphorylation of biotinylated peptide, time-resolved fluorescence)
# Type: biochemical
# Details: human DDR1 enzyme, biotinylated peptide phosphorylation; read-out: DDR1 enzyme inhibition assay IC50
# Description: 1. Measurement of DDR1 Enzyme Inhibitory Activity
# The DDR1 enzyme inhibitory activity was determined with human DDR1 enzyme prepared using the baculovirus expression system, based on the inhibitory activity of phosphorylation of a biotinylated peptide ([…]) by the enzyme. The phosphorylated biotinylated peptide was detected using time-resolved fluorescence, with an anti-phosphorylated tyrosine antibody conjugated with europium cryptate and streptavidin conjugated with XL665 which is a derivative of allophycocyanin.
# Chain of DDR1 (Q08345 19-913): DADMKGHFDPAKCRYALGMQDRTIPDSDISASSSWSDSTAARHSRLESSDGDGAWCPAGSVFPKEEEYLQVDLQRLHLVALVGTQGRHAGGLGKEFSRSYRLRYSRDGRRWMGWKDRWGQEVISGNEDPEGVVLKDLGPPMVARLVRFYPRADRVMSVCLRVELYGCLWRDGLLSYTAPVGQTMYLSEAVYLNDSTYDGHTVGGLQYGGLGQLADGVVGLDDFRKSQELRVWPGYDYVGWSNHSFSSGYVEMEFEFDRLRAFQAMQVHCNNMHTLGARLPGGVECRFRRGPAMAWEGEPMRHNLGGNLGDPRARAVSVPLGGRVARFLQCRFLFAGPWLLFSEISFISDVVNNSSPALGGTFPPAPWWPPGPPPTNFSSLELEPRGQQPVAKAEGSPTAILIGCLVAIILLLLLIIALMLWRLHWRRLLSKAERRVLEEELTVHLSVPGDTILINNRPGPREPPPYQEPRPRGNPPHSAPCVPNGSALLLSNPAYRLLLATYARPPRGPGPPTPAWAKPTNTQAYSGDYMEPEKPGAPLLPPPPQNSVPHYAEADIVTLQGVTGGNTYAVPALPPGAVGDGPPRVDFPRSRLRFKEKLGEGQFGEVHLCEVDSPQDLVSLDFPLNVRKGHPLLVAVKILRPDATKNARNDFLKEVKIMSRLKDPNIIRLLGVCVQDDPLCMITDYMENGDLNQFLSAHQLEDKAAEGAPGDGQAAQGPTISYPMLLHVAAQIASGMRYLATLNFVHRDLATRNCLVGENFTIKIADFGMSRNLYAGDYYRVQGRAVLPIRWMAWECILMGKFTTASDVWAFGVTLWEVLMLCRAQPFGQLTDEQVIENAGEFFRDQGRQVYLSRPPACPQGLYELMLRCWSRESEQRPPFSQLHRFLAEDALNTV
row,IC50,SMILES
1,860 nM,"N#Cc1ccc(Sc2ccccc2)c(Nn2cnc3ccc(C(F)(F)F)cc3c2=O)c1 [Compound B-15, 3-[[4-Oxo-6-(trifluoromethyl)quinazolin-3-yl]amino]-4-phenylsulfanylbenzonitrile]"
2,600 nM,CCSc1ccc(F)cc1Nn1cnc2c(Br)cc(C(F)(F)F)cc2c1=O [Compound C-21]
3,200 nM,"CCSc1ccc(OC)cc1Nn1cnc2ccc(OC(F)(F)F)cc2c1=O [Compound C-27, 3-(2-Ethylsulfanyl-5-methoxyanilino)-6-(trifluoromethoxy)quinazolin-4-one]"
4,150 nM,"Cc1cc(Br)c2ncn(Nc3cc(Cl)ccc3Sc3ccccc3)c(=O)c2c1 [Compound B-12, 8-Bromo-3-(5-chloro-2-phenylsulfanylanilino)-6-methylquinazolin-4-one]"
5,200 nM,"CCSc1ccc(Cl)cc1Nn1cnc2ccc(SC)cc2c1=O [Compound A-48, 3-(5-Chloro-2-ethylsulfanylanilino)-6-methylsulfanylquinazolin-4-one]"
6,200 nM,"CCS(=O)(=O)c1ccc(Cl)cc1Cn1cnc2cc(C)c(I)cc2c1=O [Compound E-8, 3-[(5-Chloro-2-ethylsulfonylphenyl)methyl]-6-iodo-7-methylquinazolin-4-one]"
7,480 nM,"CCSc1ccc(Cl)cc1Nn1cnc2cc(OC)c(OC)cc2c1=O [Compound A-38, 3-(5-Chloro-2-ethylsulfanylanilino)-6,7-dimethoxyquinazolin-4-one]"
8,1750 nM,"CCS(=O)(=O)c1ccc(Cl)cc1Nn1cnc2cc(OC)c(OC)cc2c1=O [Compound A-39, 3-(5-Chloro-2-ethylsulfonylanilino)-6-dimethoxyquinazolin-4-one]"
9,170 nM,"CCSc1ccc(Cl)cc1Nn1cnc2c(Br)cc(C)cc2c1=O [Compound A-1, 8-Bromo-3-(5-chloro-2-ethylsulfanylanilino)-6-methylquinazolin-4-one]"
10,3100 nM,"CCSc1ccc(Cl)cc1Nn1cnc2cc3c(cc2c1=O)OCCO3 [Compound A-42, 3-(5-Chloro-2-ethylsulfanylanilino)-7,8-dihydro-[1,4]dioxino[2,3-g]quinazolin-4-one]"
11,120 nM,"CCS(=O)(=O)c1ccc(Cl)cc1Nn1cnc2ccc([N+](=O)[O-])cc2c1=O [Compound A-57, 3-(5-Chloro-2-ethylsulfonylanilino)-6-nitroquinazolin-4-one]"
12,6400 nM,"CCS(=O)(=O)c1ccc(C#N)cc1Nn1cnc2ncc(Br)cc2c1=O [Compound C-8, 3-[(6-Bromo-4-oxopyrido[2,3-d]pyrimidin-3-yl)amino]-4-ethylsulfonylbenzonitrile]"
13,1950 nM,"CCS(=O)(=O)c1ccc(Cl)cc1Nn1cnc2cc3c(cc2c1=O)OCO3 [Compound A-41, 7-(5-Chloro-2-ethylsulfonylanilino)-[1,3]dioxolo[4,5-g]quinazolin-8-one]"
14,2360 nM,"CCSc1ncc(Cl)cc1Nn1cnc2c(Br)cccc2c1=O [Compound D-1, 8-Bromo-3-[(5-chloro-3-ethylsulfanylpyridin-3-yl)amino]quinazolin-4-one]"
15,110 nM,"CCSc1ccc(C#N)cc1Nn1cnc2c(Br)cc(C)cc2c1=O [Compound C-1, 3-[(8-Bromo-6-methyl-4-oxoquinazolin-3-yl)amino]-4-ethylsulfanylbenzonitrile]"
16,1930 nM,"CCS(=O)(=O)c1ccc(Cl)cc1Nn1cnc2cnc(OC)cc2c1=O [Compound A-22, 3-(5-Chloro-2-ethylsulfonylanilino)-6-methoxypyrido[3,4-d]pyrimidin-4-one]"
17,540 nM,"CCSc1ccc(Cl)cc1Cn1cnc2c(Br)cc(OC(F)(F)F)cc2c1=O [Compound E-11, 8-bromo-3-[(5-chloro-2-ethylsulfanylphenyl)methyl]-6-(trifluoromethoxy)quinazolin-4-one]"
18,230 nM,"CCSc1ccc(C#N)cc1Nn1cnc2cc(Br)c(OC(F)(F)F)cc2c1=O [Compound C-17, 3-[[7-Bromo-4-oxo-6-(trifluoromethoxy)quinazolin-3-yl]amino]-4-ethylsulfanylbenzonitrile]"
19,1470 nM,"N#Cc1ccc(S(=O)(=O)c2ccccc2)c(Nn2cnc3ccc(C(F)(F)F)cc3c2=O)c1 [Compound B-16, 4-(Benzenesulfonyl)-3-[[4-oxo-6-(trifluoromethyl)quinazolin-3-yl]amino]benzonitrile]"
20,130 nM,"CCSc1ccc(Cl)cc1Nn1cnc2cnc(Cl)cc2c1=O [Compound A-14, 6-Chloro-3-(5-chloro-2-ethylsulfanylanilino)pyrido[3,4-d]pyrimidin-4-one]"
21,110 nM,CCSc1ccc(C#N)cc1Nn1cnc2c(Br)cc(OC(F)(F)F)cc2c1=O [Compound C-13]

row,IC50,SMILES
1,3110 nM,"CC#Cc1ccc2ncn(Nc3cc(Cl)ccc3S(=O)(=O)CC)c(=O)c2c1 [Compound A-65, 3-(5-Chloro-2-ethylsulfonylanilino)-6-prop-1-ynylquinazolin-4-one]"
2,740 nM,"Cc1cc(Br)c2ncn(Nc3cc(Cl)ccc3[S+]([O-])c3ccccc3)c(=O)c2c1 (stereo not shown) [Compound B-13, 3-[2-(Benzenesulfinyl)-5-chloroanilino]-8-bromo-6-methylquinazolin-4-one]"
3,2130 nM,"CCS(=O)(=O)c1ccc(Cl)cc1Nn1cnc2ccc(S(C)(=O)=O)cc2c1=O [Compound A-49, 3-(5-Chloro-2-ethylsulfonylanilino)-6-methylsulfonylquinazolin-4-one]"
4,300 nM,"CCS(=O)(=O)c1ccc(F)cc1Nn1cnc2c(Br)cc(C(F)(F)F)cc2c1=O [Compound C-22, 8-Bromo-3-(2-ethylsulfonyl-5-fluoroanilino)-6-(trifluoromethyl)quinazolin-4-one]"
5,250 nM,"CSc1ccc(Cl)cc1Nn1cnc2c(Br)cc(C)cc2c1=O [Compound B-1, 8-Bromo-3-(5-chloro-2-methylsulfanylanilino)-6-methylquinazolin-4-one]"
6,450 nM,"CCSc1ccc(Cl)cc1Cn1cnc2ccc(C(F)(F)F)cc2c1=O [Compound E-15, 3-[(5-Chloro-2-ethylsulfanylphenyl)methyl]-6-(trifluoromethyl)quinazolin-4-one]"
7,480 nM,"CCSc1ccc(Cl)cc1Nn1cnc2ccc(N)cc2c1=O [Compound A-59, 6-Amino-3-(5-chloro-2-ethylsulfanylanilino)quinazolin-4-one]"
8,110 nM,"CCSc1ccc(C#N)cc1Nn1cnc2c(Br)cc(C(F)(F)F)cc2c1=O [Compound C-11, 3-[[8-Bromo-4-oxo-6-(trifluoromethyl)quinazolin-3-yl]amino]-4-ethylsulfanylbenzonitrile]"
9,600 nM,"CCS(=O)(=O)c1ccc(Cl)cc1Nn1cnc2cc3c(cc2c1=O)OCCO3 [Compound A-43, 3-(5-Chloro-2-ethylsulfonylanilino)-7,8-dihydro-[1,4]dioxino[2,3-g]quinazolin-4-one]"
10,100 nM,"CCSc1ccc(Cl)cc1Nn1cnc2cc(F)c(F)cc2c1=O [Compound A-30, 3-(5-Chloro-2-ethylsulfanylanilino)-6,7-difluoroquinazolin-4-one]"
11,290 nM,"CCSc1ccc(Cl)cc1Nn1cnc2c(Br)cc(C(F)(F)F)cc2c1=O [Compound A-32, 8-Bromo-3-(5-chloro-2-ethylsulfanylanilino)-6-(trifluoromethyl)quinazolin-4-one]"
12,550 nM,"CCS(=O)(=O)c1ccc(Cl)cc1Nn1cnc2cc(C)c(Br)cc2c1=O [Compound A-8, 6-Bromo-3-(5-chloro-2-ethylsulfonylanilino)-7-methylquinazolin-4-one]"
13,330 nM,"CCS(=O)(=O)c1cc(Cl)c(C#N)cc1Nn1cnc2ccc(C(F)(F)F)cc2c1=O [Compound C-43, 2-Chloro-4-ethylsulfonyl-5-[[4-oxo-6-(trifluoromethyl)quinazolin-3-yl]amino]benzonitrile]"
14,1230 nM,"CCS(=O)(=O)c1ccc(Cl)cc1Nn1cnc2cnc(Cl)cc2c1=O [Compound A-15, 6-Chloro-3-(5-chloro-2-ethylsulfonylanilino)pyrido[3,4-d]pyrimidin-4-one]"
15,180 nM,"CCSc1ccc(Cl)cc1Nn1cnc2ccc(C(F)(F)F)cc2c1=O [Compound A-9, 3-(5-Chloro-2-ethylsulfanylanilino)-6-(trifluoromethyl)quinazolin-4-one]"
16,1710 nM,"CCS(=O)(=O)c1ccc(Cl)cc1Nn1cnc2ncc(C#N)cc2c1=O [Compound A-18, 3-(5-Chloro-2-ethylsulfonylanilino)-4-oxopyrido[2,3-d]pyrimidine-6-carbonitrile]"
17,120 nM,"CCS(=O)(=O)c1ccc(Cl)cc1Nn1cnc2ccc(C(F)(F)F)cc2c1=O [Compound A-10, 3-(5-Chloro-2-ethylsulfonylanilino)-6-(trifluoromethyl)quinazolin-4-one]"
18,680 nM,"CCS(=O)(=O)c1ccc(C#N)cc1Nn1cnc2cc(CN3CCOCC3)c(OC(F)(F)F)cc2c1=O [Compound G-8, 4-Ethylsulfonyl-3-[[7-(morpholin-4-ylmethyl)-4-oxo-6-(trifluoromethoxy)quinazolin-3-yl]amino]benzonitrile]"
19,510 nM,"CCSc1ccc(Cl)cc1Nn1cnc2cnc(F)cc2c1=O [Compound A-19, 3-(5-Chloro-2-ethylsulfanylanilino)-6-fluoropyrido[3,4-d]pyrimidin-4-one]"
20,420 nM,"CCSc1ccc(Cl)cc1Nn1cnc2c(Br)cc(OC(F)(F)F)cc2c1=O [Compound A-46, 8-Bromo-3-(5-chloro-2-ethylsulfanylanilino)-6-(trifluoromethoxy)quinazolin-4-one]"
21,580 nM,"CCSc1ncc(Cl)cc1Nn1cnc2c(Br)cc(C)cc2c1=O [Compound D-4, 8-Bromo-3-[(5-chloro-2-ethylsulfanylpyridin-3-yl)amino]-6-methylquinazolin-4-one]"

# Same assay, conditions: read-out: DDR1 enzyme inhibition assay IC50
row,IC50,SMILES
1,170 nM,"CCS(=O)(=O)c1ccc(Cl)cc1Cn1cnc2cc(CN3CC[C@@H](N)C3)c(Br)cc2c1=O [Compound J-7, 7-[[(3R)-3-aminopyrrolidin-1-yl]methyl]-6-bromo-3-[(5-chloro-2-ethylsulfonylphenyl)methyl]quinazolin-4-one]"

# Source: patent US10005739B2, “Quinazolinone and isoquinolinone derivative” (CHUGAI SEIYAKU KABUSHIKI KAISHA, priority 2013, dated 2018)
